Experimental data taken from US8076487B2, “Pyridone derivative and herbicide” (Kumiai Chemical Industry Co., Ltd., priority 2006, dated 2011).

Assays:
Assay in all cases: Test Example 1: herbicidal effect by soil application to paddy field
Format in all cases: in vivo
[1] = tested on: heartshape false pickerelweed (Monochoria vaginalis (Burm.f.) C.Presl); settings: for herbicidal effect, Monochoria vaginalis (Burm. f.) C. Presl: paddy field soil application, active ingredient 1,000 g per 1 hectare, wettable powder added dropwise to water surface the day after sowing, examined on the 21st day after application; for herbicidal effect (index), Monochoria vaginalis (Burm.f.) C.Presl: soil application to paddy field, rated by standard of Table 34
Description: (§1) Test Example 1 Test on Herbicidal Effect by Soil Application to Paddy Field In a 100 cm2 plastic pot, paddy field soil was filled. After puddling and leveling, seeds of early watergrass (Echinochloa oryzicola […] (Monochoria vaginalis ([…] Japanese bulrush (Scirpus juncoides Roxb.) were sown, and water was filled to be flooded to a water depth of 3 cm. […] Then, on the 21st day after the application to the plants grew in a greenhouse, the herbicidal effect was examined in accordance with a standard shown in Table 34. [table]

[2] = tested on: Japanese bulrush (Scirpus juncoides Roxb.); settings: for herbicidal effect, Scirpus juncoides Roxb.: paddy field soil application, active ingredient 1,000 g per 1 hectare, wettable powder added dropwise to water surface the day after sowing, examined on the 21st day after application; for herbicidal effect (index), Scirpus juncoides Roxb.: soil application to paddy field, rated by standard of Table 34
Description: as §1

[3] = tested on: early watergrass (Echinochloa oryzicola Vasing); settings: for herbicidal effect, Echinochloa oryzicola Vasing: paddy field soil application, active ingredient 1,000 g per 1 hectare, wettable powder added dropwise to water surface the day after sowing, examined on the 21st day after application; for herbicidal effect (index), Echinochloa oryzicola Vasing: soil application to paddy field, rated by standard of Table 34
Description: as §1

Row | Compound | herbicidal effect, Monochoria vaginalis (Burm. f.) C. Presl [1] | herbicidal effect, Scirpus juncoides Roxb. [2] | herbicidal effect, Echinochloa oryzicola Vasing [3] | herbicidal effect (index), Monochoria vaginalis (Burm.f.) C.Presl [1] | herbicidal effect (index), Scirpus juncoides Roxb. [2] | herbicidal effect (index), Echinochloa oryzicola Vasing [3]
1 | COc1ccccc1-n1c(C(F)(F)F)ccc(C(=O)c2cnn(C)c2O)c1=O [IV-64] | 5 (90% or more of herbicidal effect and crop phytotoxicity) | 5 (90% or more of herbicidal effect and crop phytotoxicity) | 5 (90% or more of herbicidal effect and crop phytotoxicity) |  |  | 
2 | CCCn1c(C(F)(F)F)c(C)cc(C(=O)C(C#N)=C(O)C2CC2)c1=O [V-24] |  |  |  | 5 (90% or more of herbicidal effect and crop phytotoxicity) | 5 (90% or more of herbicidal effect and crop phytotoxicity) | 5 (90% or more of herbicidal effect and crop phytotoxicity)
3 | COc1ccc(-n2c(C(F)(F)F)ccc(C(=O)c3cnn(C)c3O)c2=O)cc1 [IV-66] | 5 (90% or more of herbicidal effect and crop phytotoxicity) | 5 (90% or more of herbicidal effect and crop phytotoxicity) | 5 (90% or more of herbicidal effect and crop phytotoxicity) |  |  | 
4 | CCCCN(CCCC)n1c(C(F)(F)F)ccc(C(=O)C2=C(O)CCCC2=O)c1=O [I-174] | 5 (90% or more of herbicidal effect and crop phytotoxicity) | 5 (90% or more of herbicidal effect and crop phytotoxicity) | 5 (90% or more of herbicidal effect and crop phytotoxicity) |  |  | 
5 | Cn1c(C(F)(F)F)ccc(C(=O)C2=C(Sc3ccccc3)CC(C)(C)CC2=O)c1=O [II-19] | 5 (90% or more of herbicidal effect and crop phytotoxicity) | 5 (90% or more of herbicidal effect and crop phytotoxicity) | 5 (90% or more of herbicidal effect and crop phytotoxicity) |  |  | 
6 | CC(CCn1c(C(F)(F)F)ccc(C(=O)C2=C(O)C(C)CCC(C)C2=O)c1=O)=C(F)F (stereo not drawn) [II-27] | 5 (90% or more of herbicidal effect and crop phytotoxicity) | 5 (90% or more of herbicidal effect and crop phytotoxicity) | 5 (90% or more of herbicidal effect and crop phytotoxicity) |  |  | 
7 | CCCS(=O)(=O)Oc1c(C(=O)c2ccc(C(F)(F)F)n(Cc3cccc(OC)c3)c2=O)cnn1C [IV-104] | 5 (90% or more of herbicidal effect and crop phytotoxicity) | 4 (70 to less than 90% of herbicidal effect and crop phytotoxicity) | 5 (90% or more of herbicidal effect and crop phytotoxicity) |  |  | 
8 | CCCS(=O)(=O)Oc1c(C(=O)c2ccc(C(F)(F)F)n(CC[S+](C)[O-])c2=O)cnn1C (stereo not drawn) [IV-53] | 4 (70 to less than 90% of herbicidal effect and crop phytotoxicity) | 4 (70 to less than 90% of herbicidal effect and crop phytotoxicity) | 4 (70 to less than 90% of herbicidal effect and crop phytotoxicity) |  |  | 
9 | CN(C(=O)OC(C)(C)C)n1c(C(F)(F)F)ccc(C(=O)C2=C(O)CCCC2=O)c1=O [I-194] | 5 (90% or more of herbicidal effect and crop phytotoxicity) | 5 (90% or more of herbicidal effect and crop phytotoxicity) | 5 (90% or more of herbicidal effect and crop phytotoxicity) |  |  | 
10 | Cn1ncc(C(=O)c2ccc(C(F)(F)F)n(C)c2=O)c1OCc1ccc(C(C)(C)C)cc1 [IV-192] | 5 (90% or more of herbicidal effect and crop phytotoxicity) | 5 (90% or more of herbicidal effect and crop phytotoxicity) | 5 (90% or more of herbicidal effect and crop phytotoxicity) |  |  | 
11 | Cc1ccc(S(=O)(=O)Oc2c(C(=O)c3ccc(C(F)(F)F)n(CC4CCCO4)c3=O)cnn2C)cc1 (stereo not drawn) [IV-141] | 5 (90% or more of herbicidal effect and crop phytotoxicity) | 5 (90% or more of herbicidal effect and crop phytotoxicity) | 5 (90% or more of herbicidal effect and crop phytotoxicity) |  |  | 
12 | Cc1nn(C)c(O)c1C(=O)c1ccc(C(F)(F)F)n(CC2CCCO2)c1=O (stereo not drawn) [IV-238] | 5 (90% or more of herbicidal effect and crop phytotoxicity) | 5 (90% or more of herbicidal effect and crop phytotoxicity) | 4 (70 to less than 90% of herbicidal effect and crop phytotoxicity) |  |  | 
13 | CCCS(=O)(=O)Oc1c(C(=O)c2ccc(C(F)(F)F)n(-c3cccc(S(C)(=O)=O)c3)c2=O)cnn1C [IV-75] | 5 (90% or more of herbicidal effect and crop phytotoxicity) | 5 (90% or more of herbicidal effect and crop phytotoxicity) | 5 (90% or more of herbicidal effect and crop phytotoxicity) |  |  | 
14 | COc1cccc(-n2c(C(F)(F)F)ccc(C(=O)C3=C(O)CCCC3=O)c2=O)c1 [I-77] | 5 (90% or more of herbicidal effect and crop phytotoxicity) | 5 (90% or more of herbicidal effect and crop phytotoxicity) | 5 (90% or more of herbicidal effect and crop phytotoxicity) |  |  | 
15 | Cn1c(C(F)(F)F)ccc(C(=O)C2=C(Sc3ccc(Cl)cc3)CCCC2=O)c1=O [II-13] | 5 (90% or more of herbicidal effect and crop phytotoxicity) | 5 (90% or more of herbicidal effect and crop phytotoxicity) | 5 (90% or more of herbicidal effect and crop phytotoxicity) |  |  | 
16 | Cn1ncc(C(=O)c2ccc(C(F)(F)F)n(C)c2=O)c1OCc1ccc(Cl)cc1 [IV-191] | 5 (90% or more of herbicidal effect and crop phytotoxicity) | 5 (90% or more of herbicidal effect and crop phytotoxicity) | 5 (90% or more of herbicidal effect and crop phytotoxicity) |  |  | 
17 | Cn1c(C(F)(F)F)ccc(C(=O)C2=C(Sc3c(Cl)c(Cl)c(Cl)c(Cl)c3Cl)CCCC2=O)c1=O [II-16] | 5 (90% or more of herbicidal effect and crop phytotoxicity) | 5 (90% or more of herbicidal effect and crop phytotoxicity) | 5 (90% or more of herbicidal effect and crop phytotoxicity) |  |  | 
18 | Cc1ccc(SC2=C(C(=O)c3ccc(C(F)(F)F)n(C)c3=O)C(=O)CCC2)cc1 [II-9] | 5 (90% or more of herbicidal effect and crop phytotoxicity) | 5 (90% or more of herbicidal effect and crop phytotoxicity) | 5 (90% or more of herbicidal effect and crop phytotoxicity) |  |  | 
19 | Cn1c(C(F)(F)F)ccc(C(=O)C2=C(Sc3cccc(Cl)c3)CCCC2=O)c1=O [II-12] | 5 (90% or more of herbicidal effect and crop phytotoxicity) | 5 (90% or more of herbicidal effect and crop phytotoxicity) | 5 (90% or more of herbicidal effect and crop phytotoxicity) |  |  | 
20 | Cn1ncc(C(=O)c2ccc(C(F)(F)F)n(CC[S+](C)[O-])c2=O)c1O (stereo not drawn) [IV-52] | 4 (70 to less than 90% of herbicidal effect and crop phytotoxicity) | 4 (70 to less than 90% of herbicidal effect and crop phytotoxicity) | 4 (70 to less than 90% of herbicidal effect and crop phytotoxicity) |  |  | 
21 | N#CC(C(=O)c1ccc(C(F)(F)F)n(CC2CCCO2)c1=O)=C(O)C1CC1 (stereo not drawn) [V-26] |  |  |  | 5 (90% or more of herbicidal effect and crop phytotoxicity) | 4 (70 to less than 90% of herbicidal effect and crop phytotoxicity) | 5 (90% or more of herbicidal effect and crop phytotoxicity)
22 | O=C1CCCC(O)=C1C(=O)c1ccc(C(F)(F)F)n(CS(=O)(=O)CC(F)(F)F)c1=O [I-64] | 5 (90% or more of herbicidal effect and crop phytotoxicity) | 5 (90% or more of herbicidal effect and crop phytotoxicity) | 4 (70 to less than 90% of herbicidal effect and crop phytotoxicity) |  |  | 
23 | CC1CCC(=O)C(C(=O)c2ccc(C(F)(F)F)n(C)c2=O)=C1O (stereo not drawn) [II-1] | 5 (90% or more of herbicidal effect and crop phytotoxicity) | 5 (90% or more of herbicidal effect and crop phytotoxicity) | 5 (90% or more of herbicidal effect and crop phytotoxicity) |  |  | 
24 | CC(C)(C)OC(=O)Nn1c(C(F)(F)F)ccc(C(=O)C2=C(O)CCCC2=O)c1=O [I-193] | 5 (90% or more of herbicidal effect and crop phytotoxicity) | 5 (90% or more of herbicidal effect and crop phytotoxicity) | 5 (90% or more of herbicidal effect and crop phytotoxicity) |  |  | 
25 | O=C1CCCC(O)=C1C(=O)c1ccc(C(F)(F)F)n(CS(=O)(=O)C2CCCCC2)c1=O [I-62] | 5 (90% or more of herbicidal effect and crop phytotoxicity) | 4 (70 to less than 90% of herbicidal effect and crop phytotoxicity) | 5 (90% or more of herbicidal effect and crop phytotoxicity) |  |  | 
